Assay results published in ChEMBL document CHEMBL1137640, “In vitro antimycobacterial spectrum of a diarylquinoline ATP synthase inhibitor” (2007).
In brackets after ≈: the same amount, converted by molar mass.

Test system: Mycobacterium tuberculosis
Experiment: Antimicrobial activity against multidrug-resistant Mycobacterium tuberculosis isolate after 2 to 4 weeks by two fold dilution method
Format: functional

In the case of `COc1nc2ccc(Br)cc2cc1[C@@H](c1ccccc1)[C@@](O)(CCN(C)C)c1cccc2ccccc12` [BEDAQUILINE], the MIC is reported as 0.004 µg/mL (≈ 0.0072 µM), the MIC50 is reported as 0.03 µg/mL (≈ 0.054 µM) and the MIC90 is reported as 0.06 µg/mL (≈ 0.108 µM).
